Publication PMC4769319, “Cohesin Releases DNA through Asymmetric ATPase-Driven Ring Opening” (Molecular Cell, 2016)

Molecular target: T1, Smc1/Smc3 heterodimer with Scc1-C (cohesin) (Saccharomyces cerevisiae, UniProt P32908+P47037, P32908:E1158Q, form not given)
T1 construct: N-terminal tags; Sf9 insect cells; fluorescently labelled for MST; with Sister chromatid cohesion protein 1
T1 sequence (P32908 1-1225 E1158Q): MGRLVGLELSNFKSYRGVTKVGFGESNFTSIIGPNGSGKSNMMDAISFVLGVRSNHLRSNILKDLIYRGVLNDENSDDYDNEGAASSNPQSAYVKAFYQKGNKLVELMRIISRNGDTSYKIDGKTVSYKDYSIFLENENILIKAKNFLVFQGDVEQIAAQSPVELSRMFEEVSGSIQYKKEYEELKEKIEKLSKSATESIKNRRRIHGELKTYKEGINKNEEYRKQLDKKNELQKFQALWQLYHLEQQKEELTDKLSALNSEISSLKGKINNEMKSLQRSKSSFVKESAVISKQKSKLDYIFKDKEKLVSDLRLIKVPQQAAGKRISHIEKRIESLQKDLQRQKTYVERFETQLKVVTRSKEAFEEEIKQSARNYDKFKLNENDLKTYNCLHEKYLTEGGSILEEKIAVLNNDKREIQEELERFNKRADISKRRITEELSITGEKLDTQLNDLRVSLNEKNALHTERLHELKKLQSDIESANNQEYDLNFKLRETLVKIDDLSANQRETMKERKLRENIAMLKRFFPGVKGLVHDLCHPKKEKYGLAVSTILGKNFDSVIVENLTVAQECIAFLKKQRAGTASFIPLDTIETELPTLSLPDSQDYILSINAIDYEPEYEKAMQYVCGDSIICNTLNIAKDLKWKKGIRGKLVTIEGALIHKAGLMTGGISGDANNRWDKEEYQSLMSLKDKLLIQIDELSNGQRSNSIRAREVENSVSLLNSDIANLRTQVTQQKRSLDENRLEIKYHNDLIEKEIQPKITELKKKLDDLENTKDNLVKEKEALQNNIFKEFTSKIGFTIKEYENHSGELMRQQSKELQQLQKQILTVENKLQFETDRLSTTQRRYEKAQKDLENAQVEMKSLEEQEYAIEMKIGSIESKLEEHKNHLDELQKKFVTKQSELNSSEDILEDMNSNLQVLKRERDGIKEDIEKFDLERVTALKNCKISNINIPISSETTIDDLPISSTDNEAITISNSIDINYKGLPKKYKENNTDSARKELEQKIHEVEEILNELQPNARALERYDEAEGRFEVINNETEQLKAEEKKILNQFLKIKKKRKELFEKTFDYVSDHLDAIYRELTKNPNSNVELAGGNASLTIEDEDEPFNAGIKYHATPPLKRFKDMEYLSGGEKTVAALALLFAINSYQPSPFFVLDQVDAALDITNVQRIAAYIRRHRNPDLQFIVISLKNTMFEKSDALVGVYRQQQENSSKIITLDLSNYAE
T1 sequence (P47037 1-1230): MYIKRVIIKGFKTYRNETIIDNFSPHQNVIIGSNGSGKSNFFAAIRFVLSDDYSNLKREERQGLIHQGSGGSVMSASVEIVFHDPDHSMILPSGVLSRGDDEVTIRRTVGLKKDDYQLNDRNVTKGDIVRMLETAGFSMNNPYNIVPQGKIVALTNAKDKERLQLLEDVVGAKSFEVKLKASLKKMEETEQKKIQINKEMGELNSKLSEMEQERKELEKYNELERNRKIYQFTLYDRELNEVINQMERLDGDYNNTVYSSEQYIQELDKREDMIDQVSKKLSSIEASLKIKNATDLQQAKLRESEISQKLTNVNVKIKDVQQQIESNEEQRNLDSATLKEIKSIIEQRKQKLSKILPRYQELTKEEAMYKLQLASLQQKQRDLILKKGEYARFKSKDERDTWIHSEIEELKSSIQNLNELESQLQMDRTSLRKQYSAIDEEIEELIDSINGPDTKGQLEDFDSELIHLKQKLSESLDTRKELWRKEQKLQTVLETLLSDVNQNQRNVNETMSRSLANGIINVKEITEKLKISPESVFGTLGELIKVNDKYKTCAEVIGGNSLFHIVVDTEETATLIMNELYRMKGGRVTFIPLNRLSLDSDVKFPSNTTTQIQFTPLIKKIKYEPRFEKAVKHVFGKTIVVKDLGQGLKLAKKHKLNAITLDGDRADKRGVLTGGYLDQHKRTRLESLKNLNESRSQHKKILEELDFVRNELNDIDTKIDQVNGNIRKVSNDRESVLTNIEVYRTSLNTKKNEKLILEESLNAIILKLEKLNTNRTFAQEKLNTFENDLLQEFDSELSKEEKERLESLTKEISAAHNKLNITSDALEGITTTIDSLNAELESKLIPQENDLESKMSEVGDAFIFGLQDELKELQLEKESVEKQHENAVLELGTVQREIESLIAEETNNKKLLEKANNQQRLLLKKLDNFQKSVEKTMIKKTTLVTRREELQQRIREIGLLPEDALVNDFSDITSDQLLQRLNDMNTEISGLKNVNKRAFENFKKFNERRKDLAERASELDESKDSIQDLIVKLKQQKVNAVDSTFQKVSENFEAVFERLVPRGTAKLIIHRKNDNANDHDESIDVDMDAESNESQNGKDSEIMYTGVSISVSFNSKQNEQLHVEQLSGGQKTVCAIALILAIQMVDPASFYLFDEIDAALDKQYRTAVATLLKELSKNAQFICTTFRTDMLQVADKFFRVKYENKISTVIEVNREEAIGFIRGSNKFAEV
T1 sequence (Q12158 1-566 partner): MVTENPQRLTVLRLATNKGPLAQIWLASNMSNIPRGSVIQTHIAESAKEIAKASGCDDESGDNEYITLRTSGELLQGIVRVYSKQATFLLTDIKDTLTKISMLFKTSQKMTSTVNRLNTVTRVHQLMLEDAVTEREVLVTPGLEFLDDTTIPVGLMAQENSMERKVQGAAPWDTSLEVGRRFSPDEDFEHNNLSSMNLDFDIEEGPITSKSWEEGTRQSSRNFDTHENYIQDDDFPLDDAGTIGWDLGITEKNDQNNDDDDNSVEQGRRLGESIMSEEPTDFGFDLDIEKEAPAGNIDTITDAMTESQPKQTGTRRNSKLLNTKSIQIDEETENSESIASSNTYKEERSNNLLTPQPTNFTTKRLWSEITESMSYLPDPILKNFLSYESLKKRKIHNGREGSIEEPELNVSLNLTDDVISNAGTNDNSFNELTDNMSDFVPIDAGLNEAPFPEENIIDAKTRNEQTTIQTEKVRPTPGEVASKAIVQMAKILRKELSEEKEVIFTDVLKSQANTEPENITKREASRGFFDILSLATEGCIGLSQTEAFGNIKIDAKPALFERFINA
Test: microscale thermophoresis
Type: binding
Conditions: fluorescently labelled protein; Smc1 co-purified with Scc1-C, plus Smc3; read-out: affinity
From the text: microscale thermophoresis on Smc1/Smc3 heterodimer with Scc1-C (cohesin) | Smc1 L1129V, D1164E and E1158Q mutants all had wild-type-like affinity to both ATP and ADP | wild-type and mutant cohesin complexes appear to have similar affinities to ADP

| Kd | SMILES |
| --- | --- |
| 567 ± 289 µM | Nc1ncnc2c1ncn2[C@@H]1O[C@H](COP(=O)(O)OP(=O)(O)OP(=O)(O)O)[C@@H](O)[C@H]1O [ATP] |
| > 1000 µM | Nc1ncnc2c1ncn2[C@@H]1O[C@H](COP(=O)(O)OP(=O)(O)O)[C@@H](O)[C@H]1O [ADP] |
